Assay results reported in patent US8030443B2, “Squamous cell carcinoma antigen-derived peptide binding to HLA-A24 molecule” (Kurume University, priority 2005, dated 2011).

Tested on: peptide-specific IgG in sera of cancer patients and healthy donors
Test: Measurement of anti-peptide IgG in plasma by LUMINEX multiplexed flow cytometric assay
Format: binding, human
Method: The levels of anti-peptide immunoglobulin G (IgG) were measured by the LUMINEX™ system (multiplexed flow cytometric assay) as previously reported (Komatsu N, Shichijo S, Nakagawa M, Itoh K. New multiplexed flow cytometric assay to measure anti-peptide antibody: a novel tool for monitoring immune responses to peptides used for immunization. Scand J Clin Lab Invest 2004; 64:1-11). In brief, plasma was incubated with 25 μl of peptide-coupled color-coded beads for 2 hr at room temperature on a plate shaker. After incubation, the mixture was washed with a vacuum manifold apparatus and incubated with 100 μl of biotinylated goat anti-human IgG (γ chain-specific)(BA-3080, Vector Laboratories, Burlingame, Calif., USA) for 1 h at room temperature. The plate was then washed, followed by the addition of 100 μl of streptavidin-PE (S-866, Molecular Probes, Eugene, Oreg., USA) into wells, and was incubated for 30 min at room temperature on a plate shaker. The bound beads were washed three times followed by the addition of 100 μl of Tween-PBS into each well. Fifty μl of sample was detected using the LUMINEX™ system (multiplexed flow cytometric assay). To confirm the specificity of IgG to a SCCA peptide, sample plasma was cultured in plates coated with a corresponding SCCA peptide, or with an irrelevant SCCA peptide. After the operation was repeated three times, the levels of the corresponding SCCA peptide-specific IgG in the resulting supernatant were determined by the LUMINEX™ system (multiplexed flow cytometric assay).
These 9 SCCA-derived peptides were screened based on their ability to be recognized by IgG in cancer patients. Peptide-specific IgG was measured by a multiplexed flow cytometric assay (LUMINEX™ (multiplexed flow cytometric assay)). The plasma samples were derived from 35 uterine cervical SCC patients, 10 breast adenocarcinoma patients, 10 pancreatic adenocarcinoma patients, 10 gastric adenocarcinoma, and 6 colon adenocarcinoma patients. The level of fluorescence intensity was judged to be significant when exceeded 100 at an 1/100 dilution.

Sequence: EYLDAIKKF (SCCA 118-126 peptide) [SCCA-derived peptide, position 118-126]
- Total: healthy donors with significant peptide-reactive IgG / donors tested (10 healthy donors, significant when fluorescence intensity exceeded 100 at 1/100 dilution): 2/10
- Total: cancer patients with significant peptide-reactive IgG / patients tested (71 cancer patients, significant when fluorescence intensity exceeded 100 at 1/100 dilution): 7/71
- Fluorescence intesity (serum of Breast Ca. patient #36, 1:100 dilution): 5
- Fluorescence intesity (serum of Breast Ca. patient #37, 1:100 dilution): 23
- Fluorescence intesity (serum of Breast Ca. patient #38, 1:100 dilution): 1
- Fluorescence intesity (serum of Breast Ca. patient #39, 1:100 dilution): 1
- Fluorescence intesity (serum of Breast Ca. patient #40, 1:100 dilution): 0
- Fluorescence intesity (serum of Breast Ca. patient #41, 1:100 dilution): 123
- Fluorescence intesity (serum of Breast Ca. patient #42, 1:100 dilution): 14
- Fluorescence intesity (serum of Breast Ca. patient #43, 1:100 dilution): 7
- Fluorescence intesity (serum of Breast Ca. patient #44, 1:100 dilution): 0
- Fluorescence intesity (serum of Breast Ca. patient #45, 1:100 dilution): 18
- Fluorescence intesity (serum of Colon Ca. patient #66, 1:100 dilution): 2
- Fluorescence intesity (serum of Colon Ca. patient #67, 1:100 dilution): 0
- Fluorescence intesity (serum of Colon Ca. patient #68, 1:100 dilution): 0
- Fluorescence intesity (serum of Colon Ca. patient #69, 1:100 dilution): 0
- Fluorescence intesity (serum of Colon Ca. patient #70, 1:100 dilution): 0
- Fluorescence intesity (serum of Colon Ca. patient #71, 1:100 dilution): 17
- Fluorescence intesity (serum of Gastric Ca. patient #56, 1:100 dilution): 0
- Fluorescence intesity (serum of Gastric Ca. patient #57, 1:100 dilution): 0
- Fluorescence intesity (serum of Gastric Ca. patient #58, 1:100 dilution): 0
- Fluorescence intesity (serum of Gastric Ca. patient #59, 1:100 dilution): 21
- Fluorescence intesity (serum of Gastric Ca. patient #60, 1:100 dilution): 0
- Fluorescence intesity (serum of Gastric Ca. patient #61, 1:100 dilution): 5
- Fluorescence intesity (serum of Gastric Ca. patient #62, 1:100 dilution): 0
- Fluorescence intesity (serum of Gastric Ca. patient #63, 1:100 dilution): 0
- Fluorescence intesity (serum of Gastric Ca. patient #64, 1:100 dilution): 2
- Fluorescence intesity (serum of Gastric Ca. patient #65, 1:100 dilution): 0
- Fluorescence intesity (serum of Healthy Donor #1, 1:100 dilution): 0
- Fluorescence intesity (serum of Healthy Donor #2, 1:100 dilution): 47
- Fluorescence intesity (serum of Healthy Donor #3, 1:100 dilution): 0
- Fluorescence intesity (serum of Healthy Donor #4, 1:100 dilution): 0
- Fluorescence intesity (serum of Healthy Donor #5, 1:100 dilution): 0
- Fluorescence intesity (serum of Healthy Donor #6, 1:100 dilution): 0
- Fluorescence intesity (serum of Healthy Donor #7, 1:100 dilution): 0
- Fluorescence intesity (serum of Healthy Donor #8, 1:100 dilution): 324
- Fluorescence intesity (serum of Healthy Donor #9, 1:100 dilution): 37
- Fluorescence intesity (serum of Healthy Donor #10, 1:100 dilution): 0
- Fluorescence intesity (serum of Pancreas Ca. patient #46, 1:100 dilution): 0
- Fluorescence intesity (serum of Pancreas Ca. patient #47, 1:100 dilution): 0
- Fluorescence intesity (serum of Pancreas Ca. patient #48, 1:100 dilution): 404
- Fluorescence intesity (serum of Pancreas Ca. patient #49, 1:100 dilution): 0
- Fluorescence intesity (serum of Pancreas Ca. patient #50, 1:100 dilution): 0
- Fluorescence intesity (serum of Pancreas Ca. patient #51, 1:100 dilution): 0
- Fluorescence intesity (serum of Pancreas Ca. patient #52, 1:100 dilution): 79
- Fluorescence intesity (serum of Pancreas Ca. patient #53, 1:100 dilution): 0
- Fluorescence intesity (serum of Pancreas Ca. patient #54, 1:100 dilution): 0
- Fluorescence intesity (serum of Pancreas Ca. patient #55, 1:100 dilution): 0
- Fluorescence intesity (serum of Uterine cervical Ca. patient #1, 1:100 dilution): 0
- Fluorescence intesity (serum of Uterine cervical Ca. patient #2, 1:100 dilution): 0
- Fluorescence intesity (serum of Uterine cervical Ca. patient #3, 1:100 dilution): 0
- Fluorescence intesity (serum of Uterine cervical Ca. patient #4, 1:100 dilution): 0
- Fluorescence intesity (serum of Uterine cervical Ca. patient #5, 1:100 dilution): 0
- Fluorescence intesity (serum of Uterine cervical Ca. patient #6, 1:100 dilution): 507
- Fluorescence intesity (serum of Uterine cervical Ca. patient #7, 1:100 dilution): 11
- Fluorescence intesity (serum of Uterine cervical Ca. patient #8, 1:100 dilution): 24
- Fluorescence intesity (serum of Uterine cervical Ca. patient #9, 1:100 dilution): 82
- Fluorescence intesity (serum of Uterine cervical Ca. patient #10, 1:100 dilution): 13
- Fluorescence intesity (serum of Uterine cervical Ca. patient #11, 1:100 dilution): 20
- Fluorescence intesity (serum of Uterine cervical Ca. patient #12, 1:100 dilution): 37
- Fluorescence intesity (serum of Uterine cervical Ca. patient #13, 1:100 dilution): 20
- Fluorescence intesity (serum of Uterine cervical Ca. patient #14, 1:100 dilution): 16
- Fluorescence intesity (serum of Uterine cervical Ca. patient #15, 1:100 dilution): 87
- Fluorescence intesity (serum of Uterine cervical Ca. patient #16, 1:100 dilution): 179
- Fluorescence intesity (serum of Uterine cervical Ca. patient #17, 1:100 dilution): 45
- Fluorescence intesity (serum of Uterine cervical Ca. patient #18, 1:100 dilution): 42
- Fluorescence intesity (serum of Uterine cervical Ca. patient #19, 1:100 dilution): 41
- Fluorescence intesity (serum of Uterine cervical Ca. patient #20, 1:100 dilution): 100
- Fluorescence intesity (serum of Uterine cervical Ca. patient #21, 1:100 dilution): 20
- Fluorescence intesity (serum of Uterine cervical Ca. patient #22, 1:100 dilution): 20
- Fluorescence intesity (serum of Uterine cervical Ca. patient #23, 1:100 dilution): 44
- Fluorescence intesity (serum of Uterine cervical Ca. patient #24, 1:100 dilution): 1169
- Fluorescence intesity (serum of Uterine cervical Ca. patient #25, 1:100 dilution): 15
- Fluorescence intesity (serum of Uterine cervical Ca. patient #26, 1:100 dilution): 106
- Fluorescence intesity (serum of Uterine cervical Ca. patient #27, 1:100 dilution): 28
- Fluorescence intesity (serum of Uterine cervical Ca. patient #28, 1:100 dilution): 71
- Fluorescence intesity (serum of Uterine cervical Ca. patient #29, 1:100 dilution): 13
- Fluorescence intesity (serum of Uterine cervical Ca. patient #30, 1:100 dilution): 25
- Fluorescence intesity (serum of Uterine cervical Ca. patient #31, 1:100 dilution): 101
- Fluorescence intesity (serum of Uterine cervical Ca. patient #32, 1:100 dilution): 16
- Fluorescence intesity (serum of Uterine cervical Ca. patient #33, 1:100 dilution): 114
- Fluorescence intesity (serum of Uterine cervical Ca. patient #34, 1:100 dilution): 16
- Fluorescence intesity (serum of Uterine cervical Ca. patient #35, 1:100 dilution): 19
